Assay results reported in patent US10245240B2, “Treatment of prostate carcinoma” (Pellficure Pharmaceuticals, Inc., priority 2010, dated 2019).

Legend:
[1] = tested on: P388 lymphocytic leukemia; settings: cited from earlier work
prostate carcinoma cells = settings: 5 umol/L; cited from earlier work
[2] = tested on: PTEN-P2/GFP mouse cancer cells; assay: Dose response plumbagin in PTEN-P2/GFP cells, cell counting with or without DHT; type: cell-based; settings: for % control / Average % control: 24 hours; for Average % control: mean of two experiments
Description: Cell counting: Cells in 12-well plates are washed once with PBS, detached using Trypsin, and transferred to a suspension vial in a final volume of 10 ml PBS. Cells are counted using a COULTER™ Multisizer II instrument (Beckman Coulter Inc., Hialeah, Fla.) gated for the appropriate cell size and corrected for particulate debris.
PTEN-P2/GFP mouse cancer cells were placed in androgen withdrawal medium in the presence or absence of DHT (dihydrotestosterone) at a final concentration of 10^−8 M. Plumbagin was added at the indicated concentrations for 24 hours. The absence of DHT simulates surgical or chemical castration. Cells were trypsinized and counted using a Cell Coulter counter Multisizer II, which excludes debris. Results represent cell numbers as percent of control (in which the number of cells in the absence of drug is 100%).
Androgen withdrawal medium: DMEM high-glucose phenol-red free, with the following additives: 10% charcoal-treated Fetal Bovine Serum, 25 ug/ml bovine pituitary extract, 5 ug/ml insulin, 6 ng/ml EGF recombinant.

fibrosarcomas = settings: cited from earlier work
[3] = tested on: PTEN-P2/GFP prostate cancer cells; assay: Effect of naphthoquinone analogs on PTEN-P2/GFP cell proliferation (CellTiter96 formazan-based viability assay); settings: Mus musculus, 24 h
Description: Cell culture: PTEN-P2/GFP are cells that stably express histone H2B-GFP fusion protein.
Cells are grown in DMEM medium containing 10% FBS, 2 mM L-glutamine, 100 U/ml penicillin/100 μg/ml streptomycin, insulin-selenium-transferrin (5 μg/ml insulin), and DHT 10^−8 M final. Androgen withdrawal is achieved by keeping the cells in phenol red-free DMEM medium containing 10% charcoal-treated FBS and the same supplements as in the normal medium except for DHT. Cells are maintained in a humidified incubator at 37° C. and 5% CO2. G418 (100 μg/ml) is added to maintain stable expression of H2B-GFP.
PTEN-P2/GFP prostate cancer cells were plated at a density of 8000 cells/well in 96-well plates (triplicates) in growing medium containing 10% Fetal Bovine Serum and DHT. The next day, increasing concentrations of a naphthoquinone analog (diluted from 10 mM DMSO stock solutions) were incubated for 24 hrs. Cell viability was determined by the formazan-based cytotoxicity assay “CellTiter96Aquaeous nonradioactive proliferation assay” (Promega).

[4] = tested on: hormone-refractory prostate cancer; settings: Aziz et al., Cancer Res. 2008; cited from earlier work
hepatoma = settings: in vivo; cited from earlier work

For CC1=CC(=O)c2c(O)cccc2C1=O [Plumbagin, 5-hydroxy-2-methylnaphthalene-1,4-dione], the ED50 [1] is listed as 4 mg/kg body weight, the “expression of PKCq, PI3K, AKT, activation of AP-1, NF-κB, Stat3” value (prostate carcinoma cells) is listed as “inhibit expression of multiple molecular targets” and the “efficiency of plumbagin with simulated castration (no DHT) versus plumbagin alone” value ([2]; in vitro, PTEN-P2/GFP cells) is listed as “more efficient than treatment with plumbagin alone”. The “% control” value ([2]; noDHT, 1 μM plumbagin, first experiment) was 73.70%, the Average % control ([2]; noDHT, 1 μM plumbagin) was 84.83% and the “% control” value ([2]; noDHT, 1 μM plumbagin, second experiment column) was 95.96%. The “% control” value ([2]; noDHT, 2 μM plumbagin, first experiment) was 42.90%, the Average % control ([2]; noDHT, 2 μM plumbagin) was 40.02% and the “% control” value ([2]; noDHT, 2 μM plumbagin, second experiment column) was 37.14%. The “% control” value ([2]; noDHT, 4 μM plumbagin, first experiment) was 10.12%, the Average % control ([2]; noDHT, 4 μM plumbagin) was 5.84% and the “% control” value ([2]; noDHT, 4 μM plumbagin, second experiment column) was 1.57%. The “% control” value ([2]; noDHT, 8 μM plumbagin, first experiment) was 0.45%, the Average % control ([2]; noDHT, 8 μM plumbagin) was 0.33% and the “% control” value ([2]; noDHT, 8 μM plumbagin, second experiment column) was 0.22%. For the same compound, the “% control” value ([2]; with DHT, 1 μM plumbagin, first experiment) was 106.93%, the Average % control ([2]; with DHT, 1 μM plumbagin) was 84.11% and the “% control” value ([2]; with DHT, 1 μM plumbagin, second experiment column) was 61.29%. The “% control” value ([2]; with DHT, 2 μM plumbagin, first experiment) was 94.18%, the Average % control ([2]; with DHT, 2 μM plumbagin) was 56.67% and the “% control” value ([2]; with DHT, 2 μM plumbagin, second experiment column) was 19.16%. For the same compound, the “% control” value ([2]; with DHT, 4 μM plumbagin, first experiment) was 22.62%, the Average % control ([2]; with DHT, 4 μM plumbagin) was 13.76% and the “% control” value ([2]; with DHT, 4 μM plumbagin, second experiment column) was 4.89%. The “% control” value ([2]; with DHT, 8 μM plumbagin, first experiment) was 0.85%, the Average % control ([2]; with DHT, 8 μM plumbagin) was 0.62% and the “% control” value ([2]; with DHT, 8 μM plumbagin, second experiment column) was 0.40%. The ED50 (fibrosarcomas) was 0.75 mg/kg body weight, the IC50 [3] was 4.55 µM and the viability at 1 µM ([3]; 1 μM, medium with 10% FBS and DHT) was 94.6%. The viability at 2 µM ([3]; 2 μM, medium with 10% FBS and DHT) was 90.9%, the viability at 3 µM ([3]; 3 μM, medium with 10% FBS and DHT) was 88.9% and the viability at 4 µM ([3]; 4 μM, medium with 10% FBS and DHT) was 73%. For the same compound, the viability at 5 µM ([3]; 5 μM, medium with 10% FBS and DHT) was 32.9%, the viability at 7 µM ([3]; 7 μM, medium with 10% FBS and DHT) was 0.4% and the viability at 10 µM ([3]; 10 μM, medium with 10% FBS and DHT) was 0.6%. The “effect on growth and invasion of hormone-refractory prostate cancer” value [4] was “inhibited growth and invasion of hormone-refractory prostate cancer” and the effect on hepatoma (hepatoma) was “induced regression of hepatoma”.
